Measurements from patent US8076338B2, “Kinase modulators and methods of use” (Exelixis, Inc., priority 2004, dated 2011).
Each block holds one molecule with its values, some of them ahead of it.

How the values were obtained:
AktK = AktK (Homo sapiens, UniProt P31749); assay: Luciferase-coupled chemiluminescence kinase assay (ATP consumption); assay type: biochemical; settings: Table 1; class symbols per key; read-out: AKT-1 IC50
Method in brief: (§1)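 Activity is read as ATP depletion: luciferase-luciferin reagent added after a 3 h ambient-temperature kinase reaction, with total ATP use limited to 25-60%. Before ATP addition, 2.5-5 nM kinase and compound were preincubated 30 min in Tris pH 7.5/MgCl2/TX-100/DTT buffer; […].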

p70S6K = p70S6K (Homo sapiens, UniProt P23443); assay: as above; assay type: biochemical; settings: Table 1; class symbols per key
p70S6K, sequence (P23443 whole entry): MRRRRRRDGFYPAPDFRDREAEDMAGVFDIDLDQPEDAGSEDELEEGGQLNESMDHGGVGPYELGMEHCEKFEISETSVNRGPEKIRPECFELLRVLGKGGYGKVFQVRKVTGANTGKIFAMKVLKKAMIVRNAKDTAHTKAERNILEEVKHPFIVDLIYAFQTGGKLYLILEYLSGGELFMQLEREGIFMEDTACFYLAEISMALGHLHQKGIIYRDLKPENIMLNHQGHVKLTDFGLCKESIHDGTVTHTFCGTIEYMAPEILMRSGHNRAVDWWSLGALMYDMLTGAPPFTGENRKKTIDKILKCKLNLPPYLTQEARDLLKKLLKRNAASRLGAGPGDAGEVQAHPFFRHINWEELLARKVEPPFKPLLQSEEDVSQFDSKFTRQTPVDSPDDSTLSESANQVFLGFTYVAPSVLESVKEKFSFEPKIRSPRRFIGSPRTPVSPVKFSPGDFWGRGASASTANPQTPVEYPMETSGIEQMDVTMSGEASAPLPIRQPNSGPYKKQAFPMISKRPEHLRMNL
Method in brief: as §1

AktK, sequence (P31749 whole entry): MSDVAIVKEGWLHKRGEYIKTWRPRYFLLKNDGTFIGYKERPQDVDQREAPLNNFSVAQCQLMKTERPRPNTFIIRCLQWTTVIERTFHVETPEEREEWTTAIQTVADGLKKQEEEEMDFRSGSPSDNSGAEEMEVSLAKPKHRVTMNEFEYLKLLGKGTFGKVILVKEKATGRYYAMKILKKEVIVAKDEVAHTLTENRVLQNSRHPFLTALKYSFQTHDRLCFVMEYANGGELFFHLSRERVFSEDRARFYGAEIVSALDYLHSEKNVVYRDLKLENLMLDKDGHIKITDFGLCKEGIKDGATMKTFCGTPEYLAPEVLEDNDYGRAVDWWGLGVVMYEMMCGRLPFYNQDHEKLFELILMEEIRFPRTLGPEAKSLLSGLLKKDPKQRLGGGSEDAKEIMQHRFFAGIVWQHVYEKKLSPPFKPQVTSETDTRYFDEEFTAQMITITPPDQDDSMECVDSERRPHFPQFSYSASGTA

SMILES: Cc1c(NCCN2CCCC2)cc(C#CC(C)(C)C)cc1N1CCN(c2ncnc3[nH]nc(Br)c23)CC1 [Entry 238, 3-[4-(3-bromo-1H-pyrazolo[3,4-d]pyrimidin-4-yl)piperazin-1-yl]-5-(3,3-dimethylbut-1-yn-1-yl)-2-methyl-N-(2-pyrrolidin-1-ylethyl)aniline]
IC50 (AktK): < 100 nM
IC50 (p70S6K): < 100 nM

SMILES: Cc1c(NCCN2CCCC2)cc(-c2nc(-c3ccccc3)no2)cc1N1CCN(c2ncnc3[nH]nc(Br)c23)CC1 [Entry 241, 3-[4-(3-bromo-1H-pyrazolo[3,4-d]pyrimidin-4-yl)piperazin-1-yl]-2-methyl-5-(3-phenyl-1,2,4-oxadiazol-5-yl)-N-(2-pyrrolidin-1-ylethyl)aniline]
IC50 (AktK): 1000 to 10000 nM
IC50 (p70S6K): < 100 nM

SMILES: Cc1noc(-c2cc(NCCN3CCCC3)c(C)c(N3CCN(c4ncnc5[nH]nc(Br)c45)CC3)c2)n1 [Entry 242, 3-[4-(3-bromo-1H-pyrazolo[3,4-d]pyrimidin-4-yl)piperazin-1-yl]-2-methyl-5-(3-methyl-1,2,4-oxadiazol-5-yl)-N-(2-pyrrolidin-1-ylethyl)aniline]
IC50 (AktK): < 100 nM
IC50 (p70S6K): < 100 nM

SMILES: Cc1c(NCCN2CCCC2)cc(CCC(C)(C)C)cc1N1CCN(c2ncnc3[nH]nc(Br)c23)CC1 [Entry 244, 3-[4-(3-bromo-1H-pyrazolo[3,4-d]pyrimidin-4-yl)piperazin-1-yl]-5-(3,3-dimethylbutyl)-2-methyl-N-(2-pyrrolidin-1-ylethyl)aniline]
IC50 (AktK): < 100 nM
IC50 (p70S6K): < 100 nM

SMILES: CCc1cc(NCCN2CCCC2)c(C)c(N2CCN(c3ncnc4[nH]nc(Br)c34)CC2)c1 [Entry 245, 3-[4-(3-bromo-1H-pyrazolo[3,4-d]pyrimidin-4-yl)piperazin-1-yl]-5-ethyl-2-methyl-N-(2-pyrrolidin-1-ylethyl)aniline]
IC50 (AktK): 100 to 1000 nM
IC50 (p70S6K): < 100 nM

SMILES: Cc1c(NCCN2CCCC2)cc(CC[Si](C)(C)C)cc1N1CCN(c2ncnc3[nH]nc(Br)c23)CC1 [Entry 246, 3-[4-(3-bromo-1H-pyrazolo[3,4-d]pyrimidin-4-yl)piperazin-1-yl]-2-methyl-N-(2-pyrrolidin-1-ylethyl)-5-[2-(trimethylsilyl)ethyl]aniline]
IC50 (AktK): < 100 nM
IC50 (p70S6K): < 100 nM

SMILES: Cc1c(NCCN2CCCC2)cc(CCc2ccccc2)cc1N1CCN(c2ncnc3[nH]nc(Br)c23)CC1 [Entry 247, 3-[4-(3-bromo-1H-pyrazolo[3,4-d]pyrimidin-4-yl)piperazin-1-yl]-2-methyl-5-(2-phenylethyl)-N-(2-pyrrolidin-1-ylethyl)aniline]
IC50 (AktK): < 100 nM
IC50 (p70S6K): < 100 nM

SMILES: CON(C)C(=O)c1cc(NCCN2CCCC2)c(C)c(N2CCN(c3ncnc4[nH]nc(Br)c34)CC2)c1 [Entry 249, 3-[4-(3-bromo-1H-pyrazolo[3,4-d]pyrimidin-4-yl)piperazin-1-yl]-N,4-dimethyl-N-(methyloxy)-5-[(2-pyrrolidin-1-ylethyl)amino]benzamide]
IC50 (AktK): 100 to 1000 nM
IC50 (p70S6K): < 100 nM

SMILES: CCc1n[nH]c2ncnc(N3CCN(c4cc(OCC(F)(CF)CF)cc(Br)c4C)CC3)c12 [Entry 251, 4-[4-(3-bromo-5-{[2,3-difluoro-2-(fluorometh-yl)propyl]oxy}-2-methylphenyl)piperazin-1-yl]-3-ethyl-1H-pyrazolo[3,4-d]pyrimidine]
IC50 (AktK): 100 to 1000 nM
IC50 (p70S6K): < 100 nM

SMILES: Cc1c(NCCN2CCCC2)cc(OC(F)F)cc1N1CCN(c2ncnc3[nH]nc(Br)c23)CC1 [Entry 253, 3-[4-(3-bromo-1H-pyrazolo[3,4-d]pyrimidin-4-yl)piperazin-1-yl]-5-[(difluoromethyl)oxy]-2-methyl-N-(2-pyrrolidin-1-ylethyl)aniline]
IC50 (AktK): < 100 nM
IC50 (p70S6K): < 100 nM

SMILES: COc1cc(NCCN2CCCC2)c(C)c(N2CCN(c3ncnc4[nH]nc(Br)c34)CC2)c1 [Entry 255, 3-[4-(3-bromo-1H-pyrazolo[3,4-d]pyrimidin-4-yl)piperazin-1-yl]-2-methyl-5-(methyloxy)-N-(2-pyrrolidin-1-ylethyl)aniline]
IC50 (AktK): 100 to 1000 nM
IC50 (p70S6K): < 100 nM

SMILES: CCc1n[nH]c2ncnc(N3CCN(c4cc(OCC(F)(CF)CF)cc(NCCN5CCCC5)c4C)CC3)c12 [Entry 256, 5-{[2,3-difluoro-2-(fluoromethyl)propyl]oxy}-3-[4-(3-ethyl-1H-pyrazolo[3,4-d]pyrimidin-4-yl)pipera-zin-1-yl]-2-methyl-N-(2-pyrrolidin-1-ylethyl)aniline]
IC50 (AktK): < 100 nM
IC50 (p70S6K): < 100 nM

SMILES: Cc1c(NCCN2CCCC2)cc(C(=O)NOCC2CC2)cc1N1CCN(c2ncnc3[nH]nc(Br)c23)CC1 [Entry 258, 3-[4-(3-bromo-1H-pyrazolo[3,4-d]pyrimidin-4-yl)piperazin-1-yl]-N-[(cyclopropylmethyl)oxy]-4-methyl-5-[(2-pyrrolidin-1-ylethyl)amino]benzamide]
IC50 (AktK): 100 to 1000 nM
IC50 (p70S6K): < 100 nM

SMILES: Cc1nc(-c2cc(NCCN3CCCC3)c(C)c(N3CCN(c4ncnc5[nH]nc(Br)c45)CC3)c2)no1 [Entry 259, 3-[4-(3-bromo-1H-pyrazolo[3,4-d]pyrimidin-4-yl)piperazin-1-yl]-2-methyl-5-(5-methyl-1,2,4-oxadiazol-3-yl)-N-(2-pyrrolidin-1-ylethyl)aniline]
IC50 (AktK): < 100 nM
IC50 (p70S6K): < 100 nM

Other lines, results leading:

IC50 (AktK): < 100 nM
IC50 (p70S6K): < 100 nM
SMILES: Cc1c(CCCN2CCCC2)cc(OCC(C)C)cc1N1CCN(c2ncnc3[nH]nc(Br)c23)CC1 [Entry 240, 3-bromo-4-{4-[2-methyl-5-[(2-methylpropyl)oxy]-3-(3-pyrrolidin-1-ylpropyl)phenyl]piperazin-1-yl}-1H-pyrazolo[3,4-d]pyrimidine]

IC50 (AktK): < 100 nM
IC50 (p70S6K): < 100 nM
SMILES: CCC(=O)c1cc(NCCN2CCCC2)c(C)c(N2CCN(c3ncnc4[nH]nc(Br)c34)CC2)c1 [Entry 243, 1-{3-[4-(3-bromo-1H-pyrazolo[3,4-d]pyrimidin-4-yl)piperazin-1-yl]-4-methyl-5-[(2-pyrrolidin-1-ylethyl)amino]phenyl}propan-1-one]

IC50 (AktK): < 100 nM
IC50 (p70S6K): < 100 nM
SMILES: CCCC(=O)c1cc(NCCN2CCCC2)c(C)c(N2CCN(c3ncnc4[nH]nc(Br)c34)CC2)c1 [Entry 248, 1-{3-[4-(3-bromo-1H-pyrazolo[3,4-d]pyrimidin-4-yl)piperazin-1-yl]-4-methyl-5-[(2-pyrrolidin-1-ylethyl)amino]phenyl}butan-1-one]

IC50 (AktK): 100 to 1000 nM
IC50 (p70S6K): < 100 nM
SMILES: Cc1c(Br)cc(OCC(F)(CF)CF)cc1N1CCN(c2ncnc3[nH]nc(Br)c23)CC1 [Entry 250, 3-bromo-4-[4-(3-bromo-5-{[2,3-difluoro-2-(fluoromethyl)propyl]oxy}-2-methylphenyl)pipera-zin-1-yl]-1H-pyrazolo[3,4-d]pyrimidine]

IC50 (AktK): < 100 nM
IC50 (p70S6K): < 100 nM
SMILES: CC(=O)c1cc(NCCN2CCCC2)c(C)c(N2CCN(c3ncnc4[nH]nc(Br)c34)CC2)c1 [Entry 252, 1-{3-[4-(3-bromo-1H-pyrazolo[3,4-d]pyrimidin-4-yl)piperazin-1-yl]-4-methyl-5-[(2-pyrrolidin-1-ylethyl)amino]phenyl}ethanone]

IC50 (AktK): 1000 to 10000 nM
IC50 (p70S6K): 100 to 1000 nM
SMILES: CC(C)CCNc1c(F)c(F)nc(N2CCN(c3ncnc4[nH]nc(Br)c34)CC2)c1F [Entry 257, 2-[4-(3-bromo-1H-pyrazolo[3,4-d]pyrimidin-4-yl)piperazin-1-yl]-3,5,6-trifluoro-N-(3-methylbutyl)pyridin-4-amine]
